In patent publication US9469650B2, “Melampomagnolide B derivatives” (BOARD OF TRUSTEES OF THE UNIVERSITY OF ARKANSAS, priority 2013, dated 2016):
Where two headings read alike, the source gives them in different places.

What was measured:
NCI-H460 = assay: panel of 60 human tumor cell lines, growth inhibition (Non-Small Cell Lung Cancer); settings: Homo sapiens
SN12C = assay: panel of 60 human tumor cell lines, growth inhibition (Renal Cancer); settings: Homo sapiens
CCRF-CEM = assay: panel of 60 human tumor cell lines, growth inhibition (Leukemia); settings: Homo sapiens
HT29 = assay: panel of 60 human tumor cell lines, growth inhibition (Colon Cancer); settings: for Percent Growth: HT29
COLO 205 = assay: as above; settings: Homo sapiens
M14 = assay: panel of 60 human tumor cell lines, growth inhibition (Melanoma); settings: Homo sapiens
PC-3 = assay: panel of 60 human tumor cell lines, growth inhibition (Prostate Cancer); settings: Homo sapiens
NCI-H226 = assay: panel of 60 human tumor cell lines, growth inhibition (Non-Small Cell Lung Cancer); settings: Homo sapiens
NCI-H23 = assay: as above; settings: Homo sapiens
ACHN = assay: panel of 60 human tumor cell lines, growth inhibition (Renal Cancer); settings: Homo sapiens
MDA-MB-231/ATCC = assay: panel of 60 human tumor cell lines, growth inhibition (Breast Cancer); settings: Homo sapiens
MDA-MB-435 = assay: panel of 60 human tumor cell lines, growth inhibition (Melanoma); settings: Homo sapiens
SF-539 = assay: panel of 60 human tumor cell lines, growth inhibition (CNS Cancer); settings: Homo sapiens
NCI-H522 = assay: panel of 60 human tumor cell lines, growth inhibition (Non-Small Cell Lung Cancer); settings: Homo sapiens
KM12 = assay: panel of 60 human tumor cell lines, growth inhibition (Colon Cancer)
HOP-92 = assay: panel of 60 human tumor cell lines, growth inhibition (Non-Small Cell Lung Cancer); settings: Homo sapiens
HCT-15 = assay: panel of 60 human tumor cell lines, growth inhibition (Colon Cancer); settings: Homo sapiens

## C=C1C(=O)O[C@H]2[C@H]1CC/C(COC(=S)n1ccnc1)=C\CC[C@@]1(C)O[C@@H]21 [JVM 66]
NCI-H460; NCI-H460
  GI50: 15.7 µM
NCI-H460; NCI-H460, read-out: LC50
  CC50: > 100 µM
NCI-H460; NCI-H460, read-out: TGI
  IC (TGI): 71.4 µM
SN12C
  GI50: 13.7 µM
SN12C; read-out: LC50
  CC50: 85.3 µM
SN12C; read-out: TGI
  IC (TGI): 18.8 µM
CCRF-CEM; NCI five dose
  GI50: 3.38 µM
CCRF-CEM; read-out: LC50
  CC50: > 100 µM
CCRF-CEM; read-out: TGI
  IC (TGI): 16.6 µM
HT29; Log10 Concentration −4.0
  Percent Growth: −70%
HT29; Log10 Concentration −5.0
  Percent Growth: 60%
HT29; Log10 Concentration −6.0
  Percent Growth: 105%
HT29; Log10 Concentration −7.0
  Percent Growth: 100%
HT29; Log10 Concentration −8.0
  Percent Growth: 99%
HT29; Homo sapiens, HT-29
  GI50: 12 µM
HT29; Homo sapiens, HT-29, read-out: LC50
  CC50: 69.9 µM
HT29; Homo sapiens, HT-29, read-out: TGI
  IC (TGI): 29 µM
COLO 205; COLO 205
  GI50: 12.3 µM
COLO 205; COLO 205, read-out: LC50
  CC50: 61.9 µM
COLO 205; COLO 205, read-out: TGI
  IC (TGI): 27.6 µM
M14; M14
  GI50: 12.6 µM
M14; M14, read-out: LC50
  CC50: 89.2 µM
M14; M14, read-out: TGI
  IC (TGI): 33.6 µM
PC-3; PC-3
  GI50: 12 µM
PC-3; PC-3, read-out: LC50
  CC50: > 100 µM
PC-3; PC-3, read-out: TGI
  IC (TGI): 66.6 µM
NCI-H226; NCI-H226
  GI50: 99.6 µM
NCI-H226; NCI-H226, read-out: LC50
  CC50: > 100 µM
NCI-H226; NCI-H226, read-out: TGI
  IC (TGI): > 100 µM
NCI-H23; NCI-H23
  GI50: 13.5 µM
NCI-H23; NCI-H23, read-out: LC50
  CC50: > 100 µM
NCI-H23; NCI-H23, read-out: TGI
  IC (TGI): 59.8 µM
ACHN
  GI50: 6.73 µM
ACHN; read-out: LC50
  CC50: 50.7 µM
ACHN; read-out: TGI
  IC (TGI): 20.4 µM
MDA-MB-231/ATCC; MDA-MB-231
  GI50: 15.8 µM
MDA-MB-231/ATCC; MDA-MB-231, read-out: LC50
  CC50: 75.7 µM
MDA-MB-231/ATCC; MDA-MB-231, read-out: TGI
  IC (TGI): 34.6 µM
MDA-MB-435; MDA-MB-435
  GI50: 16.7 µM
MDA-MB-435; MDA-MB-435, read-out: LC50
  CC50: > 100 µM
MDA-MB-435; MDA-MB-435, read-out: TGI
  IC (TGI): 43.8 µM
SF-539; SF-539
  GI50: 16.7 µM
SF-539; SF-539, read-out: LC50
  CC50: 69.1 µM
SF-539; SF-539, read-out: TGI
  IC (TGI): 34 µM
NCI-H522; NCI-H522
  GI50: 5.19 µM
NCI-H522; NCI-H522, read-out: LC50
  CC50: 66.9 µM
NCI-H522; NCI-H522, read-out: TGI
  IC (TGI): 21.3 µM
HL-60(TB); Log10 Concentration −4.0
  Percent Growth: −62%
HL-60(TB); Log10 Concentration −5.0
  Percent Growth: 16%
HL-60(TB); Log10 Concentration −6.0
  Percent Growth: 102%
HL-60(TB); Log10 Concentration −7.0
  Percent Growth: 101%
HL-60(TB); Log10 Concentration −8.0
  Percent Growth: 95%
KM12; Homo sapiens, KM12
  GI50: > 100 µM
KM12; Homo sapiens, KM12, read-out: LC50
  CC50: > 100 µM
KM12; KM12, Log10 Concentration −4.0
  Percent Growth: 60%
KM12; KM12, Log10 Concentration −5.0
  Percent Growth: 99%
KM12; KM12, Log10 Concentration −6.0
  Percent Growth: 99%
KM12; KM12, Log10 Concentration −7.0
  Percent Growth: 102%
KM12; KM12, Log10 Concentration −8.0
  Percent Growth: 100%
KM12; KM12, NCI five dose
  TGI: >1.00E−4
HOP-92; HOP-92, HOP-92, NCI five dose
  GI50: 6.83 µM
HOP-92; HOP-92, read-out: LC50
  CC50: 83.2 µM
HOP-92; HOP-92, read-out: TGI
  IC (TGI): 26.9 µM
HCT-15; HCT-15
  GI50: 6.88 µM
HCT-15; HCT-15, read-out: LC50
  CC50: 89.2 µM
HCT-15; HCT-15, read-out: TGI
  IC (TGI): 27.1 µM
